{
  "source": "PubChem BioAssay AID651688",
  "about": "(The Scripps Research Institute Molecular Screening Center, 2012)",
  "molecular_target": "5-hydroxytryptamine receptor 5A (Homo sapiens) (UniProt P47898)",
  "sequence (P47898 whole entry, looked up)": "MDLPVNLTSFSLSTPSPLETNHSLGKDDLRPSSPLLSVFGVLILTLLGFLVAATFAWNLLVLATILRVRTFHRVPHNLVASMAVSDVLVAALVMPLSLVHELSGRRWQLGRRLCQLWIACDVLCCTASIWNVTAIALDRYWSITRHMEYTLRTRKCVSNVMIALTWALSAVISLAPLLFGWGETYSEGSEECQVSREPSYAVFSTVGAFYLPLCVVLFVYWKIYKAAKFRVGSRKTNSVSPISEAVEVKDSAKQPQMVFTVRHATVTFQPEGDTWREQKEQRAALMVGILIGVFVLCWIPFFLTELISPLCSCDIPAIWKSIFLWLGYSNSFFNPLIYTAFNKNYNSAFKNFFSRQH",
  "assay": "HTR5A activation, luminescence read-out – cell-based, dose response, counter-screen for OPRM1-OPRD1 heterodimer activator project, late-stage follow-up (AID 651688)",
  "details": "HTR5A counterscreen cells, luminescence (beta-arrestin/complementation)",
  "note": "The source made the active and inactive calls. How the calls were made is not given here.",
  "data": [
    {"smiles": "OCC1(CCc2ccccc2)CCN(Cc2cc(F)ccc2-n2cccn2)CC1", "values": [
      {"measurement": "EC50", "result": "> 40 µM (inactive)"}
    ]},
    {"smiles": "CCOC(=O)C1(CCc2ccccc2)CCN(Cc2ccc(OC(C)C)c(C#N)c2)CC1", "values": [
      {"measurement": "EC50", "result": "> 40 µM (inactive)"}
    ]},
    {"smiles": "CCOC(=O)C1(CCOc2ccccc2)CCN(Cc2cccn2-c2cccnc2)CC1", "values": [
      {"measurement": "EC50", "result": "> 40 µM (inactive)"}
    ]},
    {"smiles": "CCOC(=O)C1(Cc2ccccc2)CCN(Cc2cccn2-c2cccnc2)CC1", "values": [
      {"measurement": "EC50", "result": "> 40 µM (inactive)"}
    ]},
    {"smiles": "CCOC(=O)C1(CC2CCCCO2)CCN(Cc2c(C)cc(C)cc2-n2cccn2)CC1", "note": "(stereo unspecified)", "values": [
      {"measurement": "EC50", "result": "> 40 µM (inactive)"}
    ]},
    {"smiles": "CCOC(=O)C1(CCOc2ccccc2)CCN(Cc2ccc(O)c(OC)c2)CC1", "values": [
      {"measurement": "EC50", "result": "> 40 µM (inactive)"}
    ]},
    {"smiles": "CCOC(=O)C1(CCCc2ccccc2)CCN(Cc2cnn(C)c2)CC1", "values": [
      {"measurement": "EC50", "result": "> 40 µM (inactive)"}
    ]},
    {"smiles": "CCOC(=O)C1(CCc2ccccc2)CCN(Cc2cc(C)cc(C)c2)CC1", "values": [
      {"measurement": "EC50", "result": "> 40 µM (inactive)"}
    ]},
    {"smiles": "CCOC(=O)C1(CCc2ccccc2)CCN(Cc2ccc(NC(C)=O)cc2)CC1", "values": [
      {"measurement": "EC50", "result": "> 40 µM (inactive)"}
    ]},
    {"smiles": "CCOC(=O)C1(CCc2ccccc2)CCN(Cc2ccccc2C)CC1", "values": [
      {"measurement": "EC50", "result": "> 40 µM (inactive)"}
    ]},
    {"smiles": "CCOC(=O)C1(Cc2ccccc2)CCN(Cc2cccn2-c2nccs2)CC1", "values": [
      {"measurement": "EC50", "result": "> 40 µM (inactive)"}
    ]}
  ]
}
